Experimental data: PubChem BioAssay AID256 (DTP/NCI, 2004)
Where “and” joins values, the source holds several entries; their conditions need not be identical. Equal entries are not always repeated. Inconclusive results and toxic doses are left out.

Tested on: CD2F1 mice, L1210 leukemia ip, survival T/C
Experiment: NCI In Vivo Anticancer Drug Screen. Data for tumor model L1210 Leukemia (intraperitoneal) in CD2F1 (CDF1) mice
Conditions: higher = longer survival
How it was run: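 Ratio T/C, where T is the treated-group value and C the vehicle-dosed control value, from mice implanted with a transplantable tumor.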

[1] = endpoint: mean survival time, dose: 100.0 mg/kg/injection, schedule: Q04DX002 (ip), vehicle: saline with Tween-80
[2] = endpoint: mean survival time, dose: 200.0 mg/kg/injection, schedule: Q04DX002 (ip), vehicle: saline with Tween-80
[3] = endpoint: mean survival time, dose: 400.0 mg/kg/injection, schedule: Q04DX002 (ip), vehicle: saline with Tween-80
[4] = endpoint: mean survival time, dose: 50.0 mg/kg/injection, schedule: Q01DX009 (ip), vehicle: saline with Tween-80
[5] = endpoint: mean survival time, dose: 100.0 mg/kg/injection, schedule: Q01DX009 (ip), vehicle: saline with Tween-80
[6] = endpoint: mean survival time, dose: 100.0 mg/kg/injection, schedule: Q04DX003 (ip), vehicle: saline with Tween-80
[7] = endpoint: mean survival time, dose: 200.0 mg/kg/injection, schedule: Q01DX009 (ip), vehicle: saline with Tween-80
[8] = endpoint: mean survival time, dose: 200.0 mg/kg/injection, schedule: Q04DX003 (ip), vehicle: saline with Tween-80
[9] = endpoint: mean survival time, dose: 50.0 mg/kg/injection, schedule: Q04DX002 (ip), vehicle: saline with Tween-80

NNC(=O)c1cccc[n+]1[O-]
T/C (endpoint: mean survival time, dose: 12.5 mg/kg/injection, schedule: Q01DX001 (ip), vehicle: water): 98 % of control
T/C (endpoint: mean survival time, dose: 25.0 mg/kg/injection, schedule: Q01DX001 (ip), vehicle: water): 96 % of control
T/C (endpoint: mean survival time, dose: 50.0 mg/kg/injection, schedule: Q01DX001 (ip), vehicle: water): 93 % of control
T/C (endpoint: mean survival time, dose: 100.0 mg/kg/injection, schedule: Q01DX001 (ip), vehicle: water): 102 % of control

Cc1cc(OC(=S)N(C)C)c(S(=O)(=O)F)cc1Cl
T/C [1]: 95 % of control
T/C [2]: 98 % of control
T/C [3]: 95 % of control

COc1ccc(CN(CCO)Cc2ccccc2)cc1OC
T/C [4]: 100 % of control
T/C [5]: 90 % of control
T/C [6]: 98 % of control
T/C [7]: 100 % of control
T/C [8]: 97 % of control

O=C(c1cc2c3ccccc3ccc2c2ccccc12)C(Br)Br
T/C (endpoint: mean survival time, dose: 25.0 mg/kg/injection, schedule: Q01DX009 (ip), vehicle: saline with Tween-80): 106 % of control
T/C [4]: 103 % of control
T/C [5]: 100 % of control
T/C [6]: 93 % of control

CC(=O)NC(C(=O)O)C(C)c1c[nH]c2ccccc12 (stereo unspecified)
T/C [5]: 104 % of control
T/C [6]: 97 % of control
T/C [7]: 96 % of control
T/C [8]: 97 % of control
T/C (endpoint: mean survival time, dose: 400.0 mg/kg/injection, schedule: Q01DX009 (ip), vehicle: saline with Tween-80): 95 % of control
T/C (endpoint: mean survival time, dose: 400.0 mg/kg/injection, schedule: Q04DX003 (ip), vehicle: saline with Tween-80): 91 % of control

CC1(CO)C2C=CC(C2)C1(C)CO (stereo unspecified)
T/C (endpoint: mean survival time, dose: 75.0 mg/kg/injection, schedule: Q01DX001 (ip), vehicle: saline): 105 % of control
T/C (endpoint: mean survival time, dose: 150.0 mg/kg/injection, schedule: Q01DX001 (ip), vehicle: saline): 105 % of control

NCc1ccc(-n2cnc3c(=O)[nH]c(N)nc32)cc1
T/C [9]: 90 % of control
T/C [1]: 107 % of control
T/C [2]: 101 % of control

C[Si](C)(C)Oc1ccc(OCc2ccccc2)cc1
T/C [9]: 87 % of control
T/C [1]: 87 % of control
T/C [2]: 95 % of control
T/C [3]: 95 % of control

CCCN(CCC)CN(CCC)CCC
T/C (endpoint: mean survival time, dose: 50.0 mg/kg/injection, schedule: Q01DX009 (ip), vehicle: saline): 98 % of control
T/C (endpoint: mean survival time, dose: 100.0 mg/kg/injection, schedule: Q01DX009 (ip), vehicle: saline): 105 % of control

CNC1(C(=O)c2ccccc2)CC2CCC1C2 (stereo unspecified)
T/C (endpoint: mean survival time, dose: 100.0 mg/kg/injection, schedule: Q01DX001 (ip), vehicle: saline): 95 % of control
T/C (endpoint: mean survival time, dose: 200.0 mg/kg/injection, schedule: Q01DX001 (ip), vehicle: saline): 96 % of control
T/C (endpoint: mean survival time, dose: 400.0 mg/kg/injection, schedule: Q01DX001 (ip), vehicle: saline): 98 % of control

COc1ccc(/C=C/c2ccccc2)cc1
T/C (endpoint: mean survival time, dose: 100.0 mg/kg/injection, schedule: Q01DX001 (ip), vehicle: saline with Tween-80): 95 % of control
T/C (endpoint: mean survival time, dose: 200.0 mg/kg/injection, schedule: Q01DX001 (ip), vehicle: saline with Tween-80): 88 % of control
T/C (endpoint: mean survival time, dose: 400.0 mg/kg/injection, schedule: Q01DX001 (ip), vehicle: saline with Tween-80): 86 % of control

COc1cc([C@@H]2c3cc4c(cc3[C@H](O)[C@H]3COC(=O)[C@H]23)OCO4)cc(OC)c1OC
T/C (endpoint: median survival time, dose: 0.62 mg/kg/injection, schedule: Q01DX009 (ip), vehicle: saline with Tween-80): 122 % of control
T/C (endpoint: median survival time, dose: 0.63 mg/kg/injection, schedule: Q01DX009 (ip), vehicle: saline with Tween-80): 112 % of control
T/C (endpoint: median survival time, dose: 1.0 mg/kg/injection, schedule: Q01DX005 (ip), vehicle: Klucel (hydroxypropylcellulose) (HPC)): 124 % of control
T/C (endpoint: median survival time, dose: 1.25 mg/kg/injection, schedule: Q01DX009 (ip), vehicle: saline with Tween-80): 116 % of control and 120 % of control
T/C (endpoint: median survival time, dose: 1.8 mg/kg/injection, schedule: Q01DX009 (ip), vehicle: saline with Tween-80): 122 % of control
T/C (endpoint: median survival time, dose: 2.0 mg/kg/injection, schedule: Q01DX005 (ip), vehicle: Klucel (hydroxypropylcellulose) (HPC)): 118 % of control
T/C (endpoint: median survival time, dose: 2.5 mg/kg/injection, schedule: Q01DX009 (ip), vehicle: saline with Tween-80): 122 % of control
T/C (endpoint: median survival time, dose: 10.0 mg/kg/injection, schedule: Q01DX009 (ip), vehicle: saline with Tween-80): 115 % of control and 111 % of control
T/C (endpoint: median survival time, dose: 13.89 mg/kg/injection, schedule: Q01DX009 (ip), vehicle: saline with Tween-80): 155 % of control

C[C@]12CCC(=O)C=C1CC[C@@H]1[C@@H]2[C@@H](O)C[C@@]2(C)[C@H]1CC[C@]2(O)C(=O)COC(=O)COCC(=O)O
T/C (endpoint: mean survival time, dose: 100.0 mg/kg/injection, schedule: Q01DX001 (sc), vehicle: steriod suspending solution): 106 % of control
T/C (endpoint: mean survival time, dose: 200.0 mg/kg/injection, schedule: Q01DX001 (sc), vehicle: steriod suspending solution): 108 % of control
T/C (endpoint: mean survival time, dose: 400.0 mg/kg/injection, schedule: Q01DX001 (sc), vehicle: steriod suspending solution): 103 % of control
